Reference: US10131652B2, “Pyrimidinyloxy benzene derivatives as herbicides” (E. I. DU PONT DE NEMOURS AND COMPANY, priority 2014, dated 2018)
Like-named read-outs stand apart in the source and are kept apart here.

Columns and labels:
Test in all cases: Test E pre-/postemergence plant response
Assay type in all cases: in vivo
[1] = tested on: downy bromegrass (Bromus tectorum); conditions: scale 0 to 100, read-out: Plant response rating, Bromegrass, Downy; for pest or weed control at 16 g/ha: 16 g ai/ha; for pest or weed control at 31 g/ha: 31 g ai/ha; for pest or weed control at 62 g/ha: 62 g ai/ha; for pest or weed control at 125 g/ha: 125 g ai/ha
Procedure, shortened: (§1)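 Visual scores on a 0–100 scale (100 = complete control) were assigned against untreated controls 7–21 days after treatment in a controlled environment. Compounds, formulated with solvent plus surfactant, were applied to pre-emergence silt-loam sowings or to 1- to 4-leaf plants (2–18 cm) in potting medium.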

[2] = tested on: field poppy (Papaver rhoeas); conditions: scale 0 to 100, read-out: Plant response rating, Field Poppy; for pest or weed control at 16 g/ha: 16 g ai/ha; for pest or weed control at 31 g/ha: 31 g ai/ha; for pest or weed control at 62 g/ha: 62 g ai/ha; for pest or weed control at 125 g/ha: 125 g ai/ha
Procedure, shortened: as §1

[3] = tested on: wild buckwheat (Polygonum convolvulus); conditions: Fallopia convolvulus, scale 0 to 100, read-out: Plant response rating, Buckwheat, Wild; for pest or weed control at 16 g/ha: 16 g ai/ha; for pest or weed control at 31 g/ha: 31 g ai/ha; for pest or weed control at 62 g/ha: 62 g ai/ha; for pest or weed control at 125 g/ha: 125 g ai/ha
Procedure, shortened: as §1

[4] = tested on: wild radish (Raphanus raphanistrum); conditions: scale 0 to 100, read-out: Plant response rating, Radish, Wild; for pest or weed control at 16 g/ha: 16 g ai/ha; for pest or weed control at 31 g/ha: 31 g ai/ha; for pest or weed control at 62 g/ha: 62 g ai/ha; for pest or weed control at 125 g/ha: 125 g ai/ha
Procedure, shortened: as §1

kochia (Kochia scoparia) = conditions: Bassia scoparia, scale 0 to 100, read-out: Plant response rating, Kochia; for pest or weed control at 16 g/ha: 16 g ai/ha; for pest or weed control at 31 g/ha: 31 g ai/ha; for pest or weed control at 62 g/ha: 62 g ai/ha; for pest or weed control at 125 g/ha: 125 g ai/ha
Procedure, shortened: as §1

wild oat (Avena fatua) = conditions: scale 0 to 100, read-out: Plant response rating, Oat, Wild; for pest or weed control at 16 g/ha: 16 g ai/ha; for pest or weed control at 31 g/ha: 31 g ai/ha; for pest or weed control at 62 g/ha: 62 g ai/ha; for pest or weed control at 125 g/ha: 125 g ai/ha
Procedure, shortened: as §1

[5] = tested on: chamomile (scentless chamomile, Matricaria inodora); conditions: Tripleurospermum inodorum, scale 0 to 100, read-out: Plant response rating, Chamomile; for pest or weed control at 16 g/ha: 16 g ai/ha; for pest or weed control at 31 g/ha: 31 g ai/ha; for pest or weed control at 62 g/ha: 62 g ai/ha; for pest or weed control at 125 g/ha: 125 g ai/ha
Procedure, shortened: as §1

[6] = tested on: wild mustard (Sinapis arvensis); conditions: Brassica, scale 0 to 100, read-out: Plant response rating, Mustard, Wild; for pest or weed control at 16 g/ha: 16 g ai/ha; for pest or weed control at 31 g/ha: 31 g ai/ha; for pest or weed control at 62 g/ha: 62 g ai/ha; for pest or weed control at 125 g/ha: 125 g ai/ha
Procedure, shortened: as §1

[7] = tested on: deadnettle (henbit deadnettle, Lamium amplexicaule); conditions: scale 0 to 100, read-out: Plant response rating, Deadnettle; for pest or weed control at 16 g/ha: 16 g ai/ha; for pest or weed control at 31 g/ha: 31 g ai/ha; for pest or weed control at 62 g/ha: 62 g ai/ha; for pest or weed control at 125 g/ha: 125 g ai/ha
Procedure, shortened: as §1

[8] = tested on: windgrass (Apera spica-venti); conditions: scale 0 to 100, read-out: Plant response rating, Windgrass; for pest or weed control at 16 g/ha: 16 g ai/ha; for pest or weed control at 62 g/ha: 62 g ai/ha; for pest or weed control at 125 g/ha: 125 g ai/ha
Procedure, shortened: as §1

[9] = tested on: speedwell (bird's-eye speedwell, Veronica persica); conditions: scale 0 to 100, read-out: Plant response rating, Speedwell; for pest or weed control at 16 g/ha: 16 g ai/ha; for pest or weed control at 62 g/ha: 62 g ai/ha; for pest or weed control at 125 g/ha: 125 g ai/ha
Procedure, shortened: as §1

[10] = post-emergence, 31 g ai/ha, Postemergence

SMILES: FC(F)c1cc(-c2ccccc2Oc2ncc(Cl)cn2)no1 [Compound 35, 5-chloro-2-[2-[5-(difluoromethyl)-3-isoxazolyl]phenoxy]pyrimidine]
- pest or weed control at 16 g/ha ([1]; post-emergence, Postemergence): 5%
- pest or weed control at 31 g/ha ([1]; post-emergence, Postemergence): 5%
- pest or weed control at 62 g/ha ([1]; post-emergence, Postemergence): 15%
- pest or weed control at 125 g/ha ([1]; post-emergence, Postemergence): 30%
- pest or weed control at 16 g/ha ([1]; pre-emergence, Preemergence): 0%
- pest or weed control at 31 g/ha ([1]; pre-emergence, Preemergence): 35%
- pest or weed control at 62 g/ha ([1]; pre-emergence, Preemergence): 35%
- pest or weed control at 125 g/ha ([1]; pre-emergence, Preemergence): 25%
- pest or weed control at 16 g/ha ([2]; post-emergence, Postemergence): 70%
- pest or weed control at 31 g/ha ([2]; post-emergence, Postemergence): 75%
- pest or weed control at 62 g/ha ([2]; post-emergence, Postemergence): 80%
- pest or weed control at 125 g/ha ([2]; post-emergence, Postemergence): 100%
- pest or weed control at 16 g/ha ([2]; pre-emergence, Preemergence): 75%
- pest or weed control at 31 g/ha ([2]; pre-emergence, Preemergence): 80%
- pest or weed control at 62 g/ha ([2]; pre-emergence, Preemergence): 90%
- pest or weed control at 125 g/ha ([2]; pre-emergence, Preemergence): 90%
- pest or weed control at 16 g/ha ([3]; post-emergence, Postemergence): 75%
- pest or weed control at 31 g/ha ([3]; post-emergence, Postemergence): 85%
- pest or weed control at 62 g/ha ([3]; post-emergence, Postemergence): 90%
- pest or weed control at 125 g/ha ([3]; post-emergence, Postemergence): 95%
- pest or weed control at 16 g/ha ([3]; pre-emergence, Preemergence): 60%
- pest or weed control at 31 g/ha ([3]; pre-emergence, Preemergence): 75%
- pest or weed control at 62 g/ha ([3]; pre-emergence, Preemergence): 90%
- pest or weed control at 125 g/ha ([3]; pre-emergence, Preemergence): 100%
- pest or weed control at 16 g/ha ([4]; post-emergence, Postemergence): 65%
- pest or weed control at 31 g/ha ([4]; post-emergence, Postemergence): 75%
- pest or weed control at 62 g/ha ([4]; post-emergence, Postemergence): 85%
- pest or weed control at 125 g/ha ([4]; post-emergence, Postemergence): 95%
- pest or weed control at 16 g/ha ([4]; pre-emergence, Preemergence): 100%
- pest or weed control at 31 g/ha ([4]; pre-emergence, Preemergence): 95%
- pest or weed control at 62 g/ha ([4]; pre-emergence, Preemergence): 100%
- pest or weed control at 125 g/ha ([4]; pre-emergence, Preemergence): 100%
- pest or weed control at 16 g/ha (kochia (Kochia scoparia); post-emergence, Postemergence): 75%
- pest or weed control at 31 g/ha (kochia (Kochia scoparia); post-emergence, Postemergence): 75%
- pest or weed control at 62 g/ha (kochia (Kochia scoparia); post-emergence, Postemergence): 80%
- pest or weed control at 125 g/ha (kochia (Kochia scoparia); post-emergence, Postemergence): 90%
- pest or weed control at 16 g/ha (kochia (Kochia scoparia); pre-emergence, Preemergence): 25%
- pest or weed control at 31 g/ha (kochia (Kochia scoparia); pre-emergence, Preemergence): 65%
- pest or weed control at 62 g/ha (kochia (Kochia scoparia); pre-emergence, Preemergence): 100%
- pest or weed control at 125 g/ha (kochia (Kochia scoparia); pre-emergence, Preemergence): 100%
- pest or weed control at 16 g/ha (wild oat (Avena fatua); post-emergence, Postemergence): 10%
- pest or weed control at 31 g/ha (wild oat (Avena fatua); post-emergence, Postemergence): 15%
- pest or weed control at 62 g/ha (wild oat (Avena fatua); post-emergence, Postemergence): 35%
- pest or weed control at 125 g/ha (wild oat (Avena fatua); post-emergence, Postemergence): 60%
- pest or weed control at 16 g/ha (wild oat (Avena fatua); pre-emergence, Preemergence): 0%
- pest or weed control at 31 g/ha (wild oat (Avena fatua); pre-emergence, Preemergence): 0%
- pest or weed control at 62 g/ha (wild oat (Avena fatua); pre-emergence, Preemergence): 45%
- pest or weed control at 125 g/ha (wild oat (Avena fatua); pre-emergence, Preemergence): 35%
- pest or weed control at 16 g/ha ([5]; post-emergence, Postemergence): 5%
- pest or weed control at 31 g/ha ([5]; post-emergence, Postemergence): 5%
- pest or weed control at 62 g/ha ([5]; post-emergence, Postemergence): 5%
- pest or weed control at 125 g/ha ([5]; post-emergence, Postemergence): 10%
- pest or weed control at 16 g/ha ([5]; pre-emergence, Preemergence): 5%
- pest or weed control at 31 g/ha ([5]; pre-emergence, Preemergence): 10%
- pest or weed control at 62 g/ha ([5]; pre-emergence, Preemergence): 70%
- pest or weed control at 125 g/ha ([5]; pre-emergence, Preemergence): 70%
- pest or weed control at 16 g/ha ([6]; post-emergence, Postemergence): 90%
- pest or weed control at 31 g/ha ([6]; post-emergence, Postemergence): 85%
- pest or weed control at 62 g/ha ([6]; post-emergence, Postemergence): 85%
- pest or weed control at 125 g/ha ([6]; post-emergence, Postemergence): 100%
- pest or weed control at 16 g/ha ([6]; pre-emergence, Preemergence): 20%
- pest or weed control at 31 g/ha ([6]; pre-emergence, Preemergence): 60%
- pest or weed control at 62 g/ha ([6]; pre-emergence, Preemergence): 95%
- pest or weed control at 125 g/ha ([6]; pre-emergence, Preemergence): 95%
- pest or weed control at 16 g/ha ([7]; post-emergence, Postemergence): 40%
- pest or weed control at 31 g/ha ([7]; post-emergence, Postemergence): 60%
- pest or weed control at 62 g/ha ([7]; post-emergence, Postemergence): 70%
- pest or weed control at 125 g/ha ([7]; post-emergence, Postemergence): 80%
- pest or weed control at 16 g/ha ([7]; pre-emergence, Preemergence): 35%
- pest or weed control at 31 g/ha ([7]; pre-emergence, Preemergence): 80%
- pest or weed control at 62 g/ha ([7]; pre-emergence, Preemergence): 95%
- pest or weed control at 125 g/ha ([7]; pre-emergence, Preemergence): 95%
- pest or weed control at 16 g/ha ([8]; post-emergence, Postemergence): 10%
- pest or weed control at 31 g/ha [8, 10]: 25%
- pest or weed control at 62 g/ha ([8]; post-emergence, Postemergence): 30%
- pest or weed control at 125 g/ha ([8]; post-emergence, Postemergence): 40%
- pest or weed control at 16 g/ha ([8]; pre-emergence, Preemergence): 35%
- pest or weed control at 62 g/ha ([8]; pre-emergence, Preemergence): 85%
- pest or weed control at 125 g/ha ([8]; pre-emergence, Preemergence): 100%
- pest or weed control at 16 g/ha ([9]; post-emergence, Postemergence): 75%
- pest or weed control at 31 g/ha [9, 10]: 100%
- pest or weed control at 62 g/ha ([9]; post-emergence, Postemergence): 100%
- pest or weed control at 125 g/ha ([9]; post-emergence, Postemergence): 100%
- pest or weed control at 16 g/ha ([9]; pre-emergence, Preemergence): 100%
- pest or weed control at 62 g/ha ([9]; pre-emergence, Preemergence): 100%
- pest or weed control at 125 g/ha ([9]; pre-emergence, Preemergence): 100%
